1 compound from ChEMBL document CHEMBL1123224, “Mechanism of action of the marine natural product stypoldione: evidence for reaction with sulfhydryl groups” (1986) can be followed below.

SMILES strings stand for the structures.

Common to all, as to assay type: functional
Test [1] is filed under the species Bos taurus. Kind of test: Carboxymethylation of bovine brain tubulin pre-incubated with 17 mol compound per mol tubulin.
The species named for test [2] is Bos taurus. Kind of test: Carboxymethylation of bovine brain tubulin pre-incubated with 8.6 mol compound per mol tubulin.
The species named for test [3] is Bos taurus. Kind of test: Carboxymethylation of bovine brain tubulin pre-incubated with 0 mol compound per mol tubulin.
The species entered for test [4] is Bos taurus. Kind of test: Carboxymethylation of bovine brain tubulin pre-incubated with 86 mol compound per mol tubulin.
Test [5] is filed under the species Bos taurus. Kind of test: Carboxymethylation of bovine brain tubulin pre-incubated with 69 mol compound per mol tubulin.
The species named for test [6] is Bos taurus. Kind of test: Carboxymethylation of bovine brain tubulin pre-incubated with 34 mol compound per mol tubulin.

As for `CC1=CC(=O)C(=O)C2=C1O[C@@]1(C2)[C@@H](C)CC[C@@H]2[C@@]3(C)CC[C@H](O)C(C)(C)C3CC[C@]21C` (stereo partly specified) [STYPOLDIONE], the “Ratio_[3H]:tubulin” value in test [1] is reported as 16; in test [2], 22; in test [3], 20; in test [4], 4.3; in test [5] it was 4.8; in test [6], 12.
